Experimental data as given in ChEMBL document CHEMBL3507680, “University of Dundee, Gates Library screen for HepG2 cell viability”.

Assay: Human HepG2 cell viability assay in 384 well format
Format: toxicity, cell-based
Set-up: dose 125 nL, time 70.5 hour; cytotoxicity at 70.5 h: concentration not given beside the values
Conditions: HepG2 cells, read-out: Inhibition

SMILES	cytotoxicity at 70.5 h [%]
Cc1cccnc1NC(=O)CSc1ccc2c(c1)OCCO2	-9.85
CC(Nc1ccc(F)cc1)c1nnnn1-c1ccccc1 (stereo unspecified)	-109
COc1ccc(C(N)=O)cc1NCc1ncc(C(C)(C)C)o1	-81.1
Cc1nc(N2CCCC2)ccc1NCc1ccccn1	-96.9
CCc1ccc(NC(=O)c2ncc(C(N)=O)cc2Cl)cc1F	-107
Cc1cc(NC(=O)NC2CCN(C(C)C)CC2)c2ncccc2c1	-85.3
CC(C)n1cnnc1C1CCCN(S(=O)(=O)c2c[nH]cn2)C1 (stereo unspecified)	-78.9
CCc1nn(C)c2[nH]nc(NC(=O)c3cccnc3NC(C)C)c12	-50.3
CCCNC(=O)c1cccc(CNCc2csc(C(C)(C)C)n2)c1	-44.8
CN(C)CCN(Cc1cccc(F)c1)C(=O)c1ccc2nccn2c1	-43.4
c1ccc(N2CCCC2)c(NCc2ccncc2)c1	-39.9
CS(=O)(=O)Cc1noc(CN2CCN(c3ccccc3Cl)CC2)n1	-76.6
OC(COc1ccccc1Br)COC1CCOCC1 (stereo unspecified)	0.581
CC(=O)NCCc1ccc(S(=O)(=O)Nc2cc(F)ccc2C)s1	3.63
CC(C)c1ncc(Cl)c(C(=O)N2CCN(C3CC3)CC2)n1	-7.86
CCN(C(=O)Nc1nncs1)C(C)c1cccc(OC)c1 (stereo unspecified)	-9.86
CCc1nc(CN2CCCCC2C(N)=O)cs1 (stereo unspecified)	-2.28
CC(C)N(CCCNC(=O)C1CC1)S(C)(=O)=O	-4.77
CCOCCN1CCN(CC(O)c2ccc(F)cc2)CC1 (stereo unspecified)	-6.89
CN1CCN(c2ccccc2NC(=O)NCC[S+](C)[O-])CC1 (stereo unspecified)	-7.57
CCOCCC(=O)Nc1ccnn1-c1ccc(Cl)cc1	-3.17
COc1ccc(CSc2nnc(N)n2C2CC2)cc1Cl	-8.32

SMILES	cytotoxicity at 70.5 h [%]
CN1CCN(c2ccc(F)cc2NC(=O)NCC[S+](C)[O-])CC1 (stereo unspecified)	-2.15
CN1CCN(c2ccccc2NC(=O)c2ccco2)CC1	-6.77
O=C1CN(C(=O)CN(CC2CCC2)CC(F)(F)F)CCN1	-9.35
CCc1nc(C(=O)N2CCN(C)c3ccccc32)c[nH]1	-9.6
CN(Cc1nnn(CC2CCC2)n1)C(=O)c1ccccc1	-2.78
Cc1cnc(CCN(C)C(=O)c2ccc(O)nc2C)s1	-2.62
Cc1cnc(CCN(C)C(=O)c2cccc(C)c2O)s1	-5.87
CCOc1ccc(CSC(C)c2nc(C)no2)nc1 (stereo unspecified)	-6.64
CCc1nc(CN2CCCC2C(=O)NC2CC2)cs1 (stereo unspecified)	-7.43
CN1CCN(c2ncc(CNCCCc3cccc(F)c3)cn2)CC1	25.4
COc1c(C)cnc(CN2CCCC(c3noc(C4CC4)n3)C2)c1C (stereo unspecified)	7.81
Cc1ccc(S(=O)(=O)N(CC2CCOC2)C2CC2)cc1N(C)C (stereo unspecified)	0.338
N#Cc1ccc(CN(CCF)Cc2cccc(F)c2)cc1	6.81
CSCCC(NC(=O)C1CC1)C(=O)N(C)Cc1ccsc1 (stereo unspecified)	10.7
CN(Cc1nc(N)nc(N(C)C)n1)Cc1cccc2ccccc12	-10.6
CNC(=O)NC(=O)CN(Cc1ccc(C#N)cc1)Cc1cccc(F)c1	-2.77
O=C(CCN1CCOCC1)Nc1cccc(CNCc2cccs2)c1	-8.33
Cc1ccc(CNCc2cccc(NC(=O)CCN3CCOCC3)c2)s1	-5.6
COc1ccc(CCn2cnc(C#N)n2)cc1	-12.6
CC(C)N(Cc1ccccn1)C(=O)CCC(=O)c1ccccc1	-7.32
COCCOCC(=O)Nc1nc2c(OC)cc(F)cc2s1	-8.97
Cc1nc(C(C)C)sc1C(=O)NS(=O)(=O)c1ccc(C#N)cc1	-9.15

SMILES	cytotoxicity at 70.5 h [%]
O=C1NCCN1C1CCN(Cc2ccccn2)CC1	-5.43
Cc1nc(CN(C)C(=O)Nc2cnn(CC3CCCO3)c2)cs1 (stereo unspecified)	-1.56
CN(CCOc1cccc(CNC(=O)C2CC2)c1)C1CCOCC1	-8.5
CCOCC(O)CN1CCN(C(=O)c2ccnc(N(C)C)c2)CC1 (stereo unspecified)	-6.8
CCNC(=O)N1CCCCC1CCO (stereo unspecified)	12.6
CN(Cc1cnccn1)C(=O)c1ccnc(OC2CCC2)c1	-9.6
Cc1cnn(CC2CCCN2CC(=O)N(C)Cc2ccc(C)o2)c1 (stereo unspecified)	-7.64
CCOCC(O)CN1CCN(C(=O)c2cccc(F)c2)CC1 (stereo unspecified)	-7.93
O=C(CN1CCc2ccccc21)Nc1ccc(OC(F)F)cc1	9.55
O=C1CN(Cc2nnc(-c3ccc(Br)cc3)o2)CCN1	4.44
Cn1cnc(S(=O)(=O)N2CCCC2)c1Cl	-10.3
CCN1CCN(S(=O)(=O)c2ncn(C)c2Cl)CC1	-8.62
CC(CNC(=O)c1ccc(F)cc1Cl)N1CCCC1 (stereo unspecified)	-7.32
O=C1CN(Cc2nnc(-c3ccccc3Br)o2)CCN1	-6.27
O=C(NCc1ccoc1)Nc1ccc(CN2CCOC2=O)cc1	19
NC(=O)CN1CCCN(C(=O)c2ccn(-c3ccccc3)n2)CC1	-3.77
OC1CCN(Cc2cc3c(cc2Br)OCCO3)CC1	0.754
CCc1nnc2n1CCN(C(=O)c1csc(-c3cnn(C)c3)n1)C2	-6.07
COCCN(Cc1ccc(F)cc1Cl)C(=O)c1ccc(=O)[nH]n1	-3.15
O=C(NCCO)Nc1cccc(Cl)c1SC(F)F	16.9
COc1ccccc1OCC(=O)Nc1ncccc1OC(F)F	-7.67
Cc1cc(CN2CCc3nn(C)c(=O)cc3C2)on1	3.7

SMILES	cytotoxicity at 70.5 h [%]
Cn1c(CNc2c(F)cccc2-n2cccn2)cc(=O)n(C)c1=O	0.334
Cc1ccc(CC(=O)N2CCOC(c3nc(C)n[nH]3)C2)cn1 (stereo unspecified)	-4.16
O=C(CSc1ccc2c(c1)OCCO2)NS(=O)(=O)C1CCCCC1	0.938
Cc1ccccc1S(=O)(=O)NC(=O)CSc1ccc2c(c1)OCCO2	-4.74
O=C(Nc1ccnc(OC2CCOC2)c1)c1cc(F)ccc1F (stereo unspecified)	14.1
CCNS(=O)(=O)c1ccc(C)c(C(=O)N(C)Cc2ccco2)c1	-5.04
Cc1cnn(CCC(=O)N2CCOC(c3nc(C(C)(C)C)n[nH]3)C2)c1 (stereo unspecified)	15.8
Cc1occc1C(=O)Nc1ccnc(OC2CCOC2)c1 (stereo unspecified)	-7.45
O=C(c1ccc(Br)s1)N1CCN(Cc2ccc(OC(F)(F)F)cc2)CC1	1.44
CCc1nc(CN2CCCN(Cc3cnn(C)c3)CC2)no1	0.0385
O=C(c1cc(Cl)cc(Cl)c1)N1CCN(c2nccs2)CC1	-1.02
CC(C)NC(=O)NCCCc1cc(N)n(-c2ccccc2)n1	15.9
Nc1cc(CCCNC(=O)NC2CC2)nn1-c1ccccc1	-2.83
O=C(c1cc(Cl)c2c(c1)OCO2)N1CCN(c2nccs2)CC1	1.39
Cc1nn(C)c(N(C)C)c1CNCC(O)COc1ccc(F)cc1 (stereo unspecified)	2.45
CC1(NC(=O)Cc2csc(C(C)(C)C)n2)CCS(=O)(=O)C1 (stereo unspecified)	18.9
COc1ccc(NC(=O)NC(C)(C)c2noc(C)n2)cc1	0.532
CC(C#N)CSc1ccccc1NCC(=O)NCc1ccccc1 (stereo unspecified)	4.47
CC(C)CNC(=O)NC(=O)CNc1ccccc1SCC(C)C#N (stereo unspecified)	-2.52
Cc1nn(C)c(N(C)C)c1CNCC(O)COc1ccccc1 (stereo unspecified)	-0.0724
